Test [1] addresses HPK1. Put plainly: HPK1 Kinase Binding Assay. To be noted: active HPK1 (SignalChem M23-11G), tracer 222, LanthaScreen Eu-Anti GST antibody, one hour incubation at 25° C.
Procedure: (§1) A stock solution of 1 mM test compound was prepared in DMSO. The compound plate was prepared by 3-fold and 11-point serial dilutions. 0.1 μL of the compound in DMSO was transferred from the compound plate to the white 384 well polystyrene plates. The assay buffer contained 50 mM HEPES, pH 7.5, 0.01% Tween-20, 5 mM MgCl2, 0.01% BSA, and 5 mM DTT. 5 μL of 4 nM active HPK1 (SignalChem M23-11G) prepared in the buffer was added to the plate. The enzyme concentration given was based on the given stock concentration reported by the vender. […] After one hour incubation at 25° C., the plates were read on a PHERAstar FS plate reader (BMG Labtech). Ki values were determined.
Test [2] addresses HPK1 (Homo sapiens, UniProt Q92918). Briefly: HPK1 Kinase Binding Assay. To be noted: active HPK1 (SignalChem M23-11G), tracer 222, LanthaScreen Eu-Anti GST antibody, one hour incubation at 25° C.
Procedure: as §1

Each structure is given as a SMILES string.

Here are results for four molecules from US10899755B2, “Benzothiazole compounds and uses thereof” (Incyte Corporation, priority 2018, dated 2021).

Sequence of HPK1 (Homo sapiens, UniProt Q92918) (Q92918 whole entry, looked up): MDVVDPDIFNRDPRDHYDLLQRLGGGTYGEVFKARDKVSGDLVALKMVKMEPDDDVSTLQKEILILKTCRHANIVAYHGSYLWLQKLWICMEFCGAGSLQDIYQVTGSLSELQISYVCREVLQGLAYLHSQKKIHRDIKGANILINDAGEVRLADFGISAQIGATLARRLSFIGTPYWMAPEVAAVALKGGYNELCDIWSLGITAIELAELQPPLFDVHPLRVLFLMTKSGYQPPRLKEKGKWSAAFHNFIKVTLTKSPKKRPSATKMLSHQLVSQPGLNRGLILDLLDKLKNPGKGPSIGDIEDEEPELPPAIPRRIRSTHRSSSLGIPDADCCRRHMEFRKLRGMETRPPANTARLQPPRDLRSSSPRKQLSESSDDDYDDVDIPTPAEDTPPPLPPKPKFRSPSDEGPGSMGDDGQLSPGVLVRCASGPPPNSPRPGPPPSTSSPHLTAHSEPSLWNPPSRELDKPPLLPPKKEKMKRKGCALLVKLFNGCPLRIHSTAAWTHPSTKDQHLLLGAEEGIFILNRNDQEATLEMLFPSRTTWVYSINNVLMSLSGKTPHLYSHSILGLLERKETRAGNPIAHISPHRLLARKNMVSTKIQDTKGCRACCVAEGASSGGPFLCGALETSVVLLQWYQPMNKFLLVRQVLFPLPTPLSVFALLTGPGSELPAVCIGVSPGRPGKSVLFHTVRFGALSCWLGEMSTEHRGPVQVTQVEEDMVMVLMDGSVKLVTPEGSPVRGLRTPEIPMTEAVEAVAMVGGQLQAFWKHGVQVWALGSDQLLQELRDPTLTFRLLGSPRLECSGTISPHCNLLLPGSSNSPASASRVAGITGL

On to `Cc1nc2c(N3CC[C@@H](N)C3)c(NC(=O)c3ccnc(-c4c(F)cccc4C(F)(F)F)n3)ccc2s1` [Example 3, (R)—N-(4-(3-Aminopyrrolidin-1-yl)-2-methylbenzo[d]thiazol-5-yl)-2-(2-fluoro-6-(trifluoromethyl)phenyl)pyrimidine-4-carboxamide], for which the Ki at HPK1 [1] is less than 100 nM.
Regarding `COc1cccc(F)c1-c1nccc(C(=O)Nc2cc(C)c3sc(C)nc3c2N2CC[C@H](N)C2)n1` [Example 7, (S)—N-(4-(3-Aminopyrrolidin-1-yl)-2,7-dimethylbenzo[d]thiazol-5-yl)-2-(2-fluoro-6-methoxyphenyl)pyrimidine-4-carboxamide], the Ki on HPK1 [2] was less than 100 nM.
On to `CCc1nc2c(N3C[C@@H](N)C[C@H]3CO)c(NC(=O)c3ccnc(-c4c(F)cccc4OC)n3)ccc2s1` [Example 12, N-(4-((2S,4S)-4-Amino-2-(hydroxymethyl)pyrrolidin-1-yl)-2-ethylbenzo[d]thiazol-5-yl)-2-(2-fluoro-6-methoxyphenyl)pyrimidine-4-carboxamide], for which, on HPK1 [2], the Ki was less than 100 nM.
As to `COc1cccc(F)c1-c1nccc(C(=O)Nc2ccc3sc(C)nc3c2N2CCOC[C@@H]2CN)n1` [Example 26, (S)—N-(4-(3-(aminomethyl)morpholino)-2-methylbenzo[d]thiazol-5-yl)-2-(2-fluoro-6-methoxyphenyl)pyrimidine-4-carboxamide], the Ki on HPK1 [2] is less than 100 nM.
